From patent US6716867B1, “Use of dexmedetomidine for ICU sedation” (priority 1998, dated 2004)
“And” between values parts separate entries of the source, which are not always exact repeats. Equal entries are not always repeated. Where two headings read alike, the source gives them in different places.

What was measured:
ICU patients [1] = experiment: Phase III multicenter ICU sedation trial, Trial 2 (midazolam and morphine as rescue)
From the text: (§1) Two Phase III dexmedetomidine multicenter clinical trials (Trial 1 and Trial 2) have been conducted in ICU sedation in Europe and Canada. Each trial had two parts, i.e., an open-label part (Part I) and double-blind, randomized, placebo-controlled part (Part II). The trials were designed to evaluate the reduction in requirements for ICU sedation (as measured by administration of other sedative/analgesic agents) in patients receiving dexmedetomidine. The use of propofol and morphine for sedation and analgesia, respectively, was evaluated in one trial (Trial 1), and midazolam and morphine in the other trial (Trial 2).
(§2) In Part I of the trials patients were to be administered a 6.0 μg/kg/h loading dose of dexmedetomidine over a 10-minute period, followed by an initial maintenance infusion of 0.4 μg/kg/h. During Part II of the study, patients were randomly assigned to receive either placebo (0.9% sodium chloride solution) or dexmedetomidine. […] The dexmedetomidine dosing protocol was the same as in the Part I of the study. […] Following extubation, the infusion rate was to be adjusted to achieve a Ramsay Sedation Score of 2 or higher.
(§3) During the 10-minute loading dose, additional medication was to be avoided, but propofol (0.2-mg/kg bolus) in Trial 1 and midazolam (1-mg bolus) in Trial 2 could be given if necessary. During dexmedetomidine infusion, rescue medications were limited to propofol (0.2 mg/kg IV boluses) in Trial 1 and midazolam ([…]) in Trial 2 for sedation and morphine for pain (2-mg IV boluses). After extubation, paracetamol was to be permitted for pain as clinically indicated. Propofol and midazolam were to be given only after increasing the dexmedetomidine infusion rate. Dexmedetomidine administration in Parts I and II was to begin within 1 hour of admission to the ICU and to be continued for 6 hours after extubation to a maximum of 24 hours total study drug infusion. Patients were observed and assessed for an additional 24 hours after cessation of dexmedetomidine.

ICU patients [2] = experiment: Phase III multicenter ICU sedation trial, Trial 1 (propofol and morphine as rescue); details: for dexmedetomidine-treated patients who died: none considered related to dexmedetomidine
From the text: as §1, §2, §3

[3] = system: postsurgical ICU patients
From the text: as §1, §2, §3
The following 16 cases are from the above mentioned Part II of trials 1 and 2.

[4] = system: postoperative CABG patients requiring mechanical ventilation in the ICU
Method: A double-blind, randomized, placebo-controlled study was conducted to evaluate the efficacy, safety, and titratability of dexmedetomidine in mechanically ventilated patients requiring sedation in the ICU. […] Twelve adult postoperative CABG patients requiring mechanical ventilation in the ICU who met the study selection criteria were eligible for participation.
The selection criteria were as follows. The patients required sedation for mechanical ventilation for a minimum of 8 hours following surgery, followed by continued sedation for 6 hours after extubation. The patients were not to have been intubated longer than 24 hours to be evaluable for the test. The patients received only morphine for management for pain and received none of the following medications during study drug administration: sedating agents other than midazolam, neuromuscular blocking agents except for insertion of the endotrachael tube, epidural or spinal analgesic/anesthetic agents.
Safety was evaluated through the monitoring of adverse events, cardiac monitoring, laboratory tests, vital signs, oxygen saturation, and concomitant medications.
Twelve patients were randomly assigned to receive either dexmedetomidine or placebo with rescue treatment for sedation with midazolam, as clinically indicated. Patients randomized to dexmedetomidine were to receive a 10-minute loading dose of 6.0 μg/kg/h, followed by an initial maintenance infusion. The rate of maintenance infusion was 0.4 μg/kg/h. The maintenance rate of infusion could be titrated in increments of 0.1 μg/kg/h to achieve and maintain a Ramsey Sedation Score of 3 or higher. The range for the maintenance infusion was to be kept between 0.2 and 0.7 μg/kg/h. Dexmedetomidine administration was to begin within one hour after admission to the ICU and continued until 6 hours after extubation. […] The placebo was 0.9% sodium chloride solution administered the same way dexmedetomidine was administered.

[5] = system: postoperative coronary artery bypass graft(s) patients (CABG), requiring sedation in the ICU
[6] = case 4, immediately after extubation

Cc1cccc([C@H](C)c2c[nH]cn2)c1C [dexmedetomidine, (+)-(S)-4-[1-(2,3-dimethylphenyl)ethyl]-1H-imidazole]
midazolam required for sedation, vs placebo (ICU patients [1]; Trial 2): significantly less
morphine required for pain, vs placebo (ICU patients [1]; Trial 2): significantly less
deaths among dexmedetomidine-treated patients (ICU patients [1]; Trial 2, Part I and Part II, five placebo-treated patients died): No deaths
speed of achieving sedation levels (ICU patients [1]; Trial 2, vs placebo-treated patients who received midazolam): more quickly
changes in systolic blood pressure, diastolic blood pressure and heart rate (ICU patients [1]; in vivo): consistent with the known pharmacological effect of α2-agonists
respiratory depression (ICU patients [1]; in vivo): no clinically apparent respiratory depression
safety and tolerability (ICU patients [1]; in vivo): safe and well tolerated
morphine required for pain, vs placebo (ICU patients [2]; Trial 1): significantly less
propofol required for sedation, vs placebo (ICU patients [2]; Trial 1): significantly less
dexmedetomidine-treated patients who died (ICU patients [2]; Trial 1, Part I): three
dexmedetomidine-treated patients who died (ICU patients [2]; Trial 1, Part II, one placebo-treated patient died): three
speed of achieving sedation levels (ICU patients [2]; Trial 1, vs placebo-treated patients who received propofol): more quickly
changes in systolic blood pressure, diastolic blood pressure and heart rate (ICU patients [2]; in vivo): consistent with the known pharmacological effect of α2-agonists
respiratory depression (ICU patients [2]; in vivo): no clinically apparent respiratory depression
safety and tolerability (ICU patients [2]; in vivo): safe and well tolerated
morphine doses required while receiving dexmedetomidine ([3]; case 1, 5 minutes before extubation): one
Ramsay Sedation Score ([3]; case 1, after the first hour): 3
Ramsay Sedation Score ([3]; case 1, during the first hour): 6
Ramsay Sedation Score ([3]; case 1, later): 2
analgesic requirement ([3]; case 2, during the 12-hour infusion 0.2 to 0.7 μg/kg/h): required no morphine or other analgesic
Ramsay Sedation Score ([3]; case 3, after the first hour): 4
Ramsay Sedation Score ([3]; case 3, during the first hour (baseline score, fully anaesthetized after surgery)): 6
midazolam and morphine requirement ([3]; case 3, maintenance 0.2 to 0.3 μg/kg/h): required no midazolam or morphine
Ramsay Sedation Score ([3]; case 3, subsequently): 3
midazolam required [3, 6]: 2 mg
morphine required [3, 6]: 2 mg
morphine dose required ([3]; case 5, after dexmedetomidine infusion was discontinued): 76 mg
midazolam dose received ([3]; case 5, at 46 minutes and again at 66 minutes after start of infusion): 2 mg
initial postoperative morphine requirements ([3]; case 5, during dexmedetomidine infusion): 24 mg
morphine requirement while on dexmedetomidine ([3]; case 6): required no morphine
morphine required ([3]; case 6, after extubation and cessation of infusion, before discharge from the ICU): 4 mg
midazolam administered, total ([3]; case 6, agitation over endotracheal tube at maximum allowable dose): 16 mg
morphine required ([3]; case 6, first few hours after return to the ward): ~50 mg
morphine and midazolam requirement ([3]; case 6, first hours of infusion): required no morphine or midazolam
Ramsey Sedation Score ([3]; case 6, maintenance 0.4 to 0.7 μg/kg/h): approximately 4
Ramsey Sedation Score ([3]; case 7, 0.4 titrated to 0.7 μg/kg/h): approximately 4
morphine requirements ([3]; case 7, first 6 hours in the ICU, graft failure with ongoing bleeding): fluctuated markedly
propofol and morphine requirement ([3]; case 8, after propofol discontinued at 3 hours, dexmedetomidine tapered to 0.2 μg/kg/h): No additional propofol or morphine was required
Ramsey Sedation Score ([3]; case 8, dexmedetomidine 0.7 μg/kg/h with propofol 4 mg/kg/h, oversedated): 6
Ramsey Sedation Score ([3]; case 9, while receiving dexmedetomidine): 3
additional sedative and analgesia requirement ([3]; case 10, during the infusion): required no additional sedatives and very little analgesia
Ramsey Sedation Score ([3]; case 10, intubated, infusion 0.4-0.7 μg/kg/h): 4
additional sedative requirement ([3]; case 11, history of excessive alcohol intake, infusion between 0.3 and 0.7 μ/kg/h): no additional sedatives were required
anxiolysis and orientation ([3]; case 12, high preoperative anxiety, infusion 0.2-0.5 μg/kg/h): calm, had no fear or apprehension, and was well oriented
achievement of desired level of sedation ([3]; case 13, FIG. 2): very easily achieved with little dose adjustment
morphine sulfate required (single dose) ([3]; case 13, at 6 hours into the study period): 2 mg
opiate requirement ([3]; case 14, before extubation): no opiate was required
Ramsey Sedation Score ([3]; case 14, first half hour): 6
morphine required (single injection) ([3]; case 14, moderate pain after extubation): 2 mg
Ramsey Sedation Score ([3]; case 14, remainder of ICU stay after titration (score of 2 or 3)): 2 and 3
Ramsey Sedation Score ([3]; case 15, infusion titrated): approximately 3
PaCO2 ([3]; in vivo): stable
blood pressure ([3]; in vivo): transient increase
blood pressure (hypotension) ([3]; in vivo): 70/40
haemodynamic instability ([3]; in vivo): No evidence of haemodynamic instability
hemodynamic profile ([3]; in vivo): smooth without hypotension or episodes of bradycardia
hypotension ([3]; in vivo): one episode of moderate hypotension
respiratory depressant effect ([3]; in vivo): absence of a respiratory depressant effect
respiratory depression ([3]; in vivo): no respiratory depression
midazolam for sedation or morphine for pain required, vs placebo ([4]; human, in vivo): significantly less
respiratory depression ([4]; human, in vivo): no clinically apparent respiratory depression
safety and tolerability ([4]; human, in vivo): safe and well tolerated
need for midazolam rescue for sedation ([4]; six dexmedetomidine-sedated patients, difference to placebo in mean total midazolam dose p=0.010): did not require any midazolam
patients who required morphine for management of pain ([4]; vs five of six on placebo, mean total morphine dose difference p=0.040): One of six
patients who required morphine for pain ([5]; 12 patients, infusion 0.2 to 0.7 μg/kg/h): Two
patients with serious adverse events ([5]; 12 patients, circulatory failure and myocardial infarction, infarction had little or no temporal relationship to dexmedetomidine): One
quality of sedation ([5]; dexmedetomidine as only pharmaceutical): conveniently sedated, hemodynamically stable, and remained easily arousable
blood pressure and heart rate variability ([5]; during administration of dexmedetomidine): decreased
time until clinical effects of sedation became evident ([5]; iv loading 6 μg/kg/h over 10 min, then maintenance 0.2 or 0.4 μg/kg/h): 15 to 30 min
